Test results from patent publication US8008329B2 (Dong Wha Pharmaceutical Co., Ltd., priority 2008, dated 2011).
Marks after values point to notes of the source that are not given here.

Test system: osteoclast differentiation
Assay: Osteoclast differentiation in co-culture of mouse bone marrow cells and ST2 cells, TRAP staining (Examples 8-9)
Format: cell-based
Settings: for % number of osteoclast (vs. solvent control group): day 7; for activity at 0.1 µM: Mus musculus, Osteoclast, 168 h, day 7, read-out: % number of osteoclast (vs. solvent control group)
In short: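 Bone marrow cells from 6-8-week male ddY mice were co-cultured with ST2 stromal cells under 10^−8 M vitamin D3 and 10^−8 M dexamethasone, with compounds at 0.1 μM final (0.1% DMSO control), refreshed on days 3 and 5. On day 7, TRAP-positive osteoclasts with ≥6 nuclei were counted and expressed as % of solvent control (n=4).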

[1] = Combination treatment (alendronic acid + compounds), 0.1 μM each
[2] = Combination treatment (risedronic acid + compounds), 0.1 μM each
[3] = Individual treatment (compounds), 0.1 μM

SMILES	% number of osteoclast (vs. solvent control group) [1]	% number of osteoclast (vs. solvent control group) [2]	activity at 0.1 µM [3]	% number of osteoclast (vs. solvent control group) [3]
Cc1nc(-c2ccc(OCCCCCOc3ccc(C(=N)NO)cc3)cc2)c(CCNCC(C)C)s1 [Compound 235, N-hydroxy-4-(5-{4-[5-(2-isobutylamino-ethyl)-2-methyl-thiazol-4-yl]-phenoxy}-pentyloxy)-benzamidine]	33 ± 1.8%	25 ± 4.4^c %	38 ± 7.6%	
Cc1nc(-c2ccc(OCCCCCOc3ccc(C(=N)NO)cc3)cc2)c(CN2CCCC2)s1 [Compound 304, N-hydroxy-4-{5-[4-(2-methyl-5-pyrolidin-1-ylmethyl-thiazol-4-yl)-phenoxy]-pentyloxy}-benzamidine]	27 ± 6.4^ab %	16 ± 4.5^ac %		54 ± 6.4%
Cc1nc(-c2ccc(OCCCCCOc3ccc(C(=N)NO)cc3)cc2)c(C(=O)NCCCn2ccnc2)s1 [Compound 284, N-hydroxy-4-{5-[4-(5-{3-imidazol-1-yl-propylcarbamoyl}-2-methyl-thiazol-4-yl)-phenoxy]-pentyloxy}-benzamidine]	36 ± 5.0^ab %	19 ± 5.8^ac %	73 ± 7.7%	
CCc1sc(C2CCCCC2)nc1-c1ccc(OCCCCOc2ccc(C(=N)NO)cc2)cc1 [Compound 196, N-hydroxy-4-{4-[4-(2-cyclohexyl-5-ethyl-thiazol-4-yl)-phenoxy]-butoxy}-benzamidine]	37 ± 4.6^ab %	42 ± 8.8^ac %	68 ± 7.1%	
CN(C)c1nc(-c2ccc(OCCCCCOc3ccc(C(=N)NO)cc3)cc2)c(CCN2CCOCC2)s1 [Compound 266, N-hydroxy-4-(5-{4-[2-dimethylamino-5-(2-morpholin-4-yl-ethyl)-thiazol-4-yl]-phenoxy}-pentyloxy)-benzamidine]	36 ± 9.6^ab %	26 ± 4.3^ac %	64 ± 4%	
CN1CCN(CCc2sc(N3CCOCC3)nc2-c2ccc(OCCCCCOc3ccc(C(=N)NO)cc3)cc2)CC1 [Compound 274, N-hydroxy-4-[5-(4-{5-[2-(4-methyl-piperazin-1-yl)-ethyl]-2-morpholin-4-yl-thiazol-4-yl}-phenoxy)-pentyloxy]-benzamidine]	31 ± 2.9^ab %	13 ± 1.3^ac %	65 ± 8.9%	
N=C(NO)c1ccc(OCCCCCOc2ccc(-c3csc(C4CCCCC4)n3)cc2)cc1 [Compound 8, N-hydroxy-4-{5-[4-(2-cyclohexyl-1,3-thiazol-4-yl)phenoxy]pentyloxy}-benzamidine]	22 ± 3.4^ab %	27 ± 3.8^ac %	65 ± 10.4%	
Cc1nc(-c2ccc(OCCCCCOc3ccc(C(=N)NO)c(O)c3)cc2)c(C(C)C)s1 [Compound 188, 2,N-dihydroxy-4-{5-[4-(5-isopropyl-2-methyl-1,3-thiazol-4-yl)-phenoxy]-pentyloxy}-benzamidine]	35 ± 3.2^ab %	23 ± 5.1^ac %	56 ± 5.4%	
COCCN(C)c1nc(-c2ccc(OCCCCCOc3ccc(C(=N)NO)cc3)cc2)c(CN2CCOCC2)s1 [Compound 319, N-hydroxy-4-[5-(4-{2-[(2-methoxy-ethyl) -methyl-amino]-5-morpholin-4-ylmethyl-thiazol-4-yl}-phenoxy)-pentyloxy]-benzamidine]	25 ± 2.6^ab %	11 ± 3.3^ac %	54 ± 5.9%	
CCc1sc(NC(=O)c2cccnc2)nc1-c1ccc(OCCCCCOc2ccc(C(=N)NO)cc2)cc1 [Compound 101, N-hydroxy-4-{5-[4-(5-ethyl-2-(3-pyridylcarbonyl)amino-1,3-thiazol-4-yl)phenoxy]pentyloxy}-benzamidine]	24 ± 3.2^ab %	18 ± 2.8^ac %	50 ± 5.9%	
N=C(NO)c1ccc(OCCCCCOc2ccc(-c3nc(C4CCCCC4)sc3CCNC3CC3)cc2)cc1 [Compound 252, N-hydroxy-4-(5-{4-[2-cyclohexyl-5-(2-cyclopropylamino-ethyl)-thiazol-4-yl]-phenoxy}-pentyloxy)-benzamidine]	33 ± 6.6^b %	19 ± 4.0^ac %	44 ± 2.7%	
CCCN(CCC)CCc1sc(C2CCCCC2)nc1-c1ccc(OCCCCCOc2ccc(C(=N)NO)cc2)cc1 [Compound 251, N-hydroxy-4-(5-{4-[2-cyclohexyl-5-(2-dipropylamino-ethyl)-thiazol-4-yl]-phenoxy}-pentyloxy)-benzamidine]	20 ± 6.4^ab %	18 ± 4.4^ac %	45 ± 9.6%	
N=C(NO)c1ccc(OCCCCCOc2ccc(-c3nc(N4CCOCC4)sc3N3CCOCC3)cc2)cc1 [Compound 290, N-hydroxy-4-{5-[4-(2,5-di-morpholin-4-yl-thiazol-4-yl)-phenoxy]-pentyloxy}-benzamidine]	23 ± 4.7^ab %	12 ± 2.0^ac %	52 ± 6.2%	
CNc1nc(-c2ccc(OCCCCCOc3ccc(C(=N)NO)cc3)cc2)c(CCCl)s1 [Compound 115, N-hydroxy-4-{5-[4-(5-(2-chloroethyl)-2-methylamino-1,3-thiazol-4-yl)phenoxy]pentyloxy}-benzamidine]	51 ± 8.9%	45 ± 8.3^ac %	77 ± 12.4%	
CC(C)c1nc(-c2ccc(OCCCCCOc3ccc(C(=N)NO)cc3)cc2)c(CCNCCCn2ccnc2)s1 [Compound 244, N-hydroxy-4-[5-(4-{5-[2-(3-imidazol-1-yl-propylamino)-ethyl]-2-isopropyl-thiazol-4-yl}-phenoxy)-pentyloxy]-benzamidine]	19 ± 3.3^ab %	11 ± 1.7^ac %	46 ± 2.9%	
N=C(NO)c1ccc(OCCCCCOc2ccc(-c3nc(N)sc3CC3CCCC3)cc2)cc1 [Compound 67, N-hydroxy-4-{5-[4-(2-amino-5-cyclopentylmethyl-1,3-thiazol-4-yl)phenoxy]pentyloxy}-benzamidine]	53 ± 6.4^b %	36 ± 1.7^ac %	74 ± 11.7%	
CN(CCO)c1nc(-c2ccc(OCCCCCOc3ccc(C(=N)NO)cc3)cc2)c(CN2CCOCC2)s1 [Compound 310, N-hydroxy-4-[5-(4-{2-[(2-hydroxy-ethyl) -methyl-amino]-5-morpholin-4-ylmethyl-thiazol-4-yl}-phenoxy)-pentyloxy]-benzamidine]	33 ± 5.1^ab %	18 ± 4.5^ac %	49 ± 3.3%	
Cc1nc(-c2ccc(OCCCCCOc3ccc(C(=N)NO)cc3)cc2)c(CCn2ccnc2)s1 [Compound 222, N-hydroxy-4-(5-{4-[5-(2-imidazol-1-yl-ethyl)-2-methyl-thiazol-4-yl]-phenoxy}-pentyloxy)-benzamidine]	49 ± 6.8^ab %	36 ± 6.6^ac %	74 ± 7.1%	
Cc1nc(-c2ccc(OCCCCCOc3ccc(C(=N)NO)cc3)cc2)c(CNC2CC2)s1 [Compound 307, N-hydroxy-4-{5-[4-(5-cyclopropylaminomethyl-2-methyl-thiazol-4-yl)-phenoxy]-pentyloxy}-benzamidine]	30 ± 3.0^b %	16 ± 4.8^ac %	43 ± 8.9%	
C=Cc1sc(C)nc1-c1ccc(OCCCCCOc2ccc(C(=N)NO)cc2)cc1 [Compound 74, N-hydroxy-4-{5-[4-(5-vinyl-2-methyl-1,3-thiazole-4-yl)phenoxy]pentyloxy}-benzamidine]	36 ± 4.3^ab %	28 ± 5.4^ac %	60 ± 0.7%	
CCCCNCc1sc(C)nc1-c1ccc(OCCCCCOc2ccc(C(=N)NO)cc2)cc1 [Compound 298, N-hydroxy-4-{5-[4-(5-butylaminomethyl-2-methyl-thiazol-4-yl)-phenoxy]-pentyloxy}-benzamidine]	16 ± 3.3^ab %	8 ± 2.9^ac %	55 ± 6.1%	
Cc1nc(-c2ccc(OCCCCCOc3ccc(C(=N)NO)cc3)cc2)c(CNCCCn2ccnc2)s1 [Compound 303, N-hydroxy-4-[5-(4-{5-[(3-imidazol-1-yl-propylamino)-methyl]-2-methyl-thiazol-4-yl}-phenoxy)-pentyloxy]-benzamidine]	12 ± 2.5^ab %	8 ± 2.2^ac %	53 ± 10.7%	
N=C(NO)c1ccc(OCCCCCOc2ccc(-c3nc(-c4ccccc4)sc3Cc3ccccc3)cc2)cc1 [Compound 40, N-hydroxy-4-{5-[4-(5-benzyl-2-phenyl-1,3-thiazol-4-yl)phenoxy]pentyloxy}-benzamidine]	28 ± 4.1^ab %	20 ± 3.4^ac %	66 ± 7.1%	
Cc1nc(-c2ccc(OCCCCCOc3ccc(C(=N)N)cc3)cc2)c(C)s1 [Compound 54, 4-{5-[4-(2,5-dimethyl-1,3-thiazol-4-yl)phenoxy]pentyloxy}-benzamidine]	20 ± 4.1^ab %	19 ± 4.9^ac %	41 ± 8.3%	
